Experimental findings from patent publication US4937346A, “Phenyl-azacykloalkanes” (Carlsson; Per Arvid Emil, priority 1979, dated 1990) are described below.

In test [1] the test system is presynaptic dopaminergic receptors and postsynaptic dopaminergic receptors. Kind of test: Antagonism of the locomotor stimulating activity of (+)-amphetamine. To be noted: in vivo. The text has this: This effect is probably the result of the simultaneous stimulation of presynaptic dopaminergic receptors and partial blockade of postsynaptic dopaminergic receptors. All the major antipsychotic agents in current use are potent amphetamine antagonists, and such activity is considered to be predictive of antipsychotic action.

The test system of test [2] is postsynaptic dopaminergic receptors. Kind of test: Locomotor activity in reserpine-treated rats, enantiomers of 3-PPP. The format is in vivo, rat. To be noted: reserpine-treated rats; (+)-form 0.25 to 64 mg/kg. The text has this: 2. Evidence for postsynaptic dopaminergic receptor agonist activity of (+)-3-PPP.
Test [3] concerns postsynaptic dopaminergic receptor. Kind of test: Antagonism of apomorphine-induced locomotor stimulation. It is filed as in vivo, rat. The procedure: 3. Evidence for postsynaptic dopminergic receptor antagonist activity of (-)-3-PPP.
The locomotor stimulating action of the dopamine receptor aqonist apomorphine is antagonized by (-)-3-PPP. […] Thus the postsynaptic receptor antagonist activity requires a larger dose than the presynaptic receptor agonist activity, which is evident after doses down to 0.25 mg/kg.
Further, (-)-3-PPP and racemic 3-PPP have been compared regarding antagonism of apomorphine-induced locomotor stimulation. Either form of 3-PPP was injected subcutaneously in a dose of 8 mg/kg 20 min and apomorphine in a dose of 1 mg/kg subcutaneously 5 min before placing the rats in the Motron for 30 min. Shown are the counts per 30 min., means± s.e.m. and number of experiments (n).

The subject of test [4] is dopa formation. Kind of test: Dopa formation and dopamine metabolite levels in rats not pretreated with GBL or reserpine. The format is in vivo, rat.
The test system of test [5] is dopaminergic receptors (presynaptic and postsynaptic). Kind of test: Dopaminergic receptor profile of 3-PPP and its enantiomers (summary of tests). The format is in vivo. To be noted: summary of enantiomer tests. From the text:
The two enantiomers of 3-PPP have now been tested separately.

Test [6] concerns presynaptic dopaminergic receptor (autoreceptor). Kind of test: Spontaneous exploratory motor activity of rats, enantiomers of 3-PPP. It is filed as in vivo, rat. The procedure:
1. Evidence for presynaptic dopaminergic receptor (autoreceptor) agonist activity of both enantiomers of 3-PPP. Both enantiomers of 3-PPP cause a dose-dependent decrease in spontaneous exploratory motor activity of rats. […] However, the (+)-enantiomer causes a decrease only after doses between 0.25 and 4 mg/kg s.c.

“Also recorded” adds a separate entry of the source.

Take `CCCN1CCCC(c2cccc(O)c2)C1.Cl` (single isomer, unassigned; (-)) [(-)-3-PPP, (-)-3-(3-Hydroxyphenyl)-N-n-propylpiperidine hydrochloride]: in test [1], the “antagonism of (+)-amphetamine locomotor stimulating activity” value is on record as “striking antagonistic action”. Further, the “stimulation of locomotor activity” value in test [2] is recorded as “only a very weak stimulation of motor activity”. For the same compound, the “antagonism of apomorphine locomotor stimulation” value in test [3] (2 mg/kg) is reported as “not after 2 mg/kg”; in test [3] (8 mg/kg s.c., hydrochloride), “clearcut; also recorded: antagonized said stimulation”. Also, the “counts per 30 min., with apomorphine” value in test [3] (8 mg/kg s.c. + apomorphine 1 mg/kg s.c., means ± s.e.m., n=5) worked out at 276 ± 50 counts per 30 min. Moreover, the “dopa formation, limbic region” value in test [4] (0.053 to 64 mg/kg, no pretreatment, limbic region) is on record as “no change”. Moreover, in test [4] (0.053 to 64 mg/kg, no pretreatment, striatum), the “dopa formation, striatum” value is “increase”. Besides, the “levels of 3,4-dihydroxyphenyl acetic acid and homovanillic acid” value in test [4] (matched to the changes in dopa formation) is on record as “corresponding changes in the levels of the dopamine metabolites”. Besides, the “dopa formation and dopamine metabolite levels in rat striatum” value in test [4] (rat striatum) is “stimulate dopa formation and to raise dopaminemetabolite levels in rat striatum”. Further, in test [5], the “activity on presynaptic and postsynaptic dopaminergic receptors” value is recorded as “capable of activating the presynaptic dopaminergic receptors (autoreceptors) but concomitantly reduced the sensitivity of the postsynaptic dopaminergic receptors to dopaminergic agonists”. In addition, the “effect on locomotor activity over dose range” value in test [6] (doses between 0.053 and 64 mg/kg s.c.) was “a decrease after all these doses, with no reversal of the effect after larger doses”. Also, in test [6] (presynaptic receptor agonist activity), the “doses down to which presynaptic receptor agonist activity is evident” value stood at 0.25 mg/kg. Further, the “decrease of locomotor activity to % of control” value in test [6] (s.c., first 30 min) is recorded as 30-40 % of control.
